# Measurements as given in US11524993B2 (priority 2015, dated 2022).
# Legend:
# [1] = tested on: B/FLA/06 yamagata lineage virus; design: species or system mice; conditions: mouse, in vivo
# [2] = tested on: A/WSN/33 H1 virus; design: species or system mice; conditions: mouse, in vivo
compound,measurement,setting,value
CCOC(=O)C1=C[C@@H](OC(CC)CC)[C@H](NC(C)=O)[C@@H](N)C1 [oseltamivir],"oxygen saturation level (pulse oximetry) Day 6, B/FLA/06, avg.",[1],86%
same,"survival rates, influenza B infection",[1],90-100%
same,"oxygen saturation level (pulse oximetry) Day 6, A/WSN/33",[2],reduced oxygen saturation at similar levels as those treated with an irrelevant control mAb
same,"protection (survival), influenza A infection model",[2],no protection
